Test results as given in patent US10501440B2, “Heteroarylcarboxamide derivatives as plasma kallikrein inhibitors” (Boehringer Ingelheim International GmbH, priority 2017, dated 2019).

Assays:
Type in all cases: biochemical
KLKB1 [1] = molecular target: T1, KLKB1 (Homo sapiens (Human), UniProt P03952); assay: Inhibition of human KLKB1 in dextran sulfate activated human PPP
Description: Evaluation of the Inhibition of Human KLKB1 in Dextran Sulfate Activated Human PPP
Platelet poor plasma (PPP) obtained from human wholeblood, anticoagulated with EDTA, was activated with 12.5 μg/mL dextransulfate for 7 min on ice. The activated PPP was incubated with various concentrations of the test compound in assay buffer. Afterwards the mixture was incubated at 24° C. with 0.25 mM fluorogenic substrate H-Pro-Phe-Arg-AMC (11295 from Bachem) and measurements were performed in a kinetic interval every 2nd minute for 16 min using a Spectramax M5 (Molecular Devices) with the following settings of the wavelength excitation of 350 nm and wavelength emission of 450 nm.
(§1) The number of the compound corresponds to the number of the Example in the experimental section.

KLKB1 [2] = molecular target: T1, KLKB1; assay: Inhibition of KLKB1 (Ki), kinetic assay; conditions: 24° C., 0.25 mM H-Pro-Phe-Arg-AMC; IC50 corrected for KM of substrate
Description: (§2) The ability of compounds of formula (I) to inhibit plasma kallikrein (KLKB1), Factor XIIa (FXIIa), Factor XIa (FXIa), Factor Xa (FXa), Factor IIa (alpha-thrombin; FIIa), plasmin, trypsin, tissue kallikrein 1 (KLK1), Factor Vila (FVIIa), or FVIIa complexed with Tissue Factor, phospholipids and CaCl2 (FVIIa/TF/PL/CaCl2) was determined using the following biochemical assays in assay buffer (100 mM Tris, 150 mM NaCL, adjusted to a pH of 7.8 with HCl, and containing 0.1% (w/v) BSA and 0.05% (v/v) Tween20) in the presence of 1% (v/v) DMSO:
Evaluation of the Inhibition of KLKB1 (Ki)
Measurements were performed in a kinetic interval every 2nd minute for 16 min using a Spectramax M5 (Molecular Devices) with the following settings of the wavelength excitation of 350 nm and wavelength emission of 450 nm.
as §1
Calculation of pIC50 and Pki Values
The pIC50 values were then fitted using a four-parametric fitting procedure using GraphPad Prism (version 6; GraphPad Software, Inc.).
Where the IC50 is in molar and the KM value in mM.

KLKB1 [3] = molecular target: T1, KLKB1; assay: Inhibition of KLKB1 using an endpoint assay (fluorogenic substrate H-Pro-Phe-Arg-AMC)
Description: as §2
Evaluation of the Inhibition of KLKB1 Using an Endpoint Assay
Human KLKB1 (0.01 U/mL; Enzyme Research Laboratories) or rat KLKB1 (0.625 nM; produced in-house) was incubated for 1 h at room temperature with 0.10 μM fluorogenic substrate H-Pro-Phe-Arg-AMC (11295 from Bachem) and various concentrations of the test compound in assay buffer. Subsequently, PPACK 11 (Calbiochem) was added as a stop solution to achieve a final concentration of 1 μM and fluorescence was measured using an Envision Reader (PerkinElmer) with the wavelength excitation setting of 355 nm and the wavelength emission setting of 460 nm.
as §1

KLKB1 [4] = molecular target: T1, KLKB1; assay: Inhibition of KLKB1 in kaolin activated human PPP
Description: Evaluation of the Inhibition of KLKB1 in Kaolin Activated Human PPP
Platelet poor plasma (PPP) obtained from human wholeblood, anticoagulated with Na-Citrat, was incubated with various concentrations of the test compound together with either 25, 75, 250, or 750 μg/mL kaolin in assay buffer for 20 min at 37° C. such that for each kaolin dose used a concentration response was obtained for the test compound.
as §1

T1 sequence (P03952 391-638 limits assumed): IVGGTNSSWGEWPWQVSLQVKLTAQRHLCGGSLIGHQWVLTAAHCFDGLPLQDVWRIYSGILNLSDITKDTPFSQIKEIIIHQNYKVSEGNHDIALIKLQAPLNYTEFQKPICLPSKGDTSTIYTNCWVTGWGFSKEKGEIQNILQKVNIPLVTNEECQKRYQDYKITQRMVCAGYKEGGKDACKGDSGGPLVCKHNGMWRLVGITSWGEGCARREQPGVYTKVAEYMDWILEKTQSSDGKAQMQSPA
T1 sequence (P03952 20-390 partner limits assumed): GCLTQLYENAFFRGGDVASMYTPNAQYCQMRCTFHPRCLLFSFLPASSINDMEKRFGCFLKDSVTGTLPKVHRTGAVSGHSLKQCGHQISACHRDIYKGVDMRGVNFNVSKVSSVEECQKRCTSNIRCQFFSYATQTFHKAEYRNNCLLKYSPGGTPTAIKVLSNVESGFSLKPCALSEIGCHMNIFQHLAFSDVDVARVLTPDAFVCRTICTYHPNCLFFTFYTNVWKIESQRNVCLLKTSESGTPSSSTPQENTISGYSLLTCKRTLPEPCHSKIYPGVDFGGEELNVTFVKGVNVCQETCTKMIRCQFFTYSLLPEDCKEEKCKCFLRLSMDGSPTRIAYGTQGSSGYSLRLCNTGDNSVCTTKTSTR

| Compound | IC50 (KLKB1 [1]; human platelet poor plasma (EDTA) activated with 12.5 μg/mL dextransulfate, 24° C., read-out: IC50) | Ki (KLKB1 [2]) | IC50 (KLKB1 [3]; endpoint assay, 1 h at room temperature, 0.10 μM H-Pro-Phe-Arg-AMC, read-out: IC50) | IC90 (KLKB1 [4]) | IC50 (KLKB1 [4]; human platelet poor plasma (Na-Citrat), 25, 75, 250 or 750 μg/mL kaolin, global fit, read-out: IC50) | IC50 (KLKB1 [1]) | IC50 (KLKB1 [3]) | IC50 (KLKB1 [4]) |
| --- | --- | --- | --- | --- | --- | --- | --- | --- |
| Cc1nc(N2CC3C(C2)C3(F)F)ccc1Cn1cc(C(=O)N[C@@H]2CCc3c2ccnc3N)cn1 (stereo partly drawn) [Example 9, N-[(5R)-1-Amino-5H,6H,7H-cyclopenta[c]pyridin-5-yl]-1-[(6-{6,6-difluoro-3-azabicyclo[3.1.0]hexan-3-yl}-2-methylpyridin-3-yl)methyl]-1H-pyrazole-4-carboxamide] | 18.1 nM | 0.4 nM | 0.6 nM | 89.5 nM | 14 nM |  |  |  |
| Cc1nc(N2CC3CC3C2)ccc1Cn1cc(C(=O)N[C@@H]2CCc3c2ccnc3N)cn1 (stereo partly drawn) [Example 1, N-[(5R)-1-Amino-5H,6H,7H-cyclopenta[c]pyridin-5-yl]-1-[(6-{3-azabicyclo[3.1.0]hexan-3-yl}-2-methylpyridin-3-yl)methyl]-1H-pyrazole-4-carboxamide] |  | 0.3 nM |  | 199 nM |  | 54.1 nM | 0.5 nM | 19 nM |
